Experimental data taken from patent US9457033B2, “Steroid alkaloids and uses thereof as antimicrobial agents against electron transport-deficient microbes and as potentiators for antimicrobial agents against pathogenic bacteria” (priority 2011, dated 2016).

Test system: S. aureus SCV CF6A-S
Assay: microbe, parasite or virus in culture
Format: cell-based
Conditions: Staphylococcus aureus, SCVCF6AS; Tomatidine (50 μg); thymidine auxotrophy; 24 hours at 37° C. with O2; DMSO control 0; read-out: Diameter of inhibition zone

C[C@H]1CC[C@]2(NC1)O[C@H]1C[C@H]3[C@@H]4CC[C@H]5C[C@@H](O)CC[C@]5(C)[C@H]4CC[C@]3(C)[C@H]1[C@@H]2C [Tomatidine, tomatidine]
zone of inhibition at 50 µg/disc: 23 mm
